{
  "source": "patent US7074826B2",
  "about": "“R-NSAID esters and their use” (Encore Pharmaceuticals, Inc., priority 2002, dated 2006)",
  "origin": "cited, not measured here",
  "key": {"[1]": {"system": "cystic fibrosis patients"}, "[2]": {"system": "colon cancer patients"}, "[3]": {"system": "Alzheimer's dementia", "details": "limited clinical trial"}},
  "data": [
    {"smiles": "CC(C)Cc1ccc(C(C)C(=O)O)cc1", "note": "(racemic) [racemic ibuprofen, ibuprofen]", "values": [
      {"measurement": "adverse effects of high doses", "setting": "[1]; high doses employed in the Konstan study", "value": "conjunctivitis and epistaxis"},
      {"measurement": "progression of the lung disease", "setting": "[1]; high doses, cystic fibrosis patients, four-year period", "value": "slows progression of the lung disease"}
    ]},
    {"smiles": "O=c1[nH]cc(F)c(=O)[nH]1", "note": "[5-fluorouracil]", "values": [
      {"measurement": "survival among colon cancer patients", "setting": "[2]; administered alone", "value": "No improvement in survival"}
    ]},
    {"smiles": "COc1ccc2c(c1)c(CC(=O)O)c(C)n2C(=O)c1ccc(Cl)cc1", "note": "[indomethacin]", "values": [
      {"measurement": "progression of Alzheimer's dementia", "setting": "[3]", "value": "retardation in the progression of Alzheimer's dementia"}
    ]},
    {"smiles": "c1ccc([C@H]2CN3CCSC3=N2)cc1", "note": "[levamisole]", "values": [
      {"measurement": "survival rate among colon cancer patients", "setting": "[2]; added to 5-fluorouracil", "value": "improved survival rate"}
    ]}
  ]
}
